Experimental data from patent publication US20130012485A1, “ORGANIC COMPOUNDS” (priority 2006, published 2013).

target: T1, human DPP-IV (Homo sapiens, UniProt P27487); test: Activity assay: inhibitory activity to human DPP-IV, fluorogenic substrate H-Gly-Pro-AMC; assay type: biochemical; settings: H-Gly-Pro-AMC 10 μM, room temperature, monitored for 1 hour
T1 construct: Human DPP-IV consisting of amino acids 39 to 766 followed by a C-terminal Streptavidin-tag; Streptavidin-tag (C); made in house
Experimental: Various Example compounds were tested for their inhibitory activity to human DPP-IV.
Human DPP-IV consisting of amino acids 39 to 766 followed by a C-terminal Streptavidin-tag was expressed using the baculovirus system and purified to >80% purity. The enzyme was stored in 25 mM Tris buffer, pH 9.0, containing 300 mM NaCl at −80° C.
The fluorogenic substrates H-Gly-Pro-AMC was purchased from Bachem AG (Bubendorf, Switzerland). The substrate was kept as a 5 mM stock solution in DMSO at −20° C. All other chemicals were purchased from Sigma (Buchs, Switzerland).
The assay buffer for the DPP-IV reaction was 25 mM Tris/HCl, pH 7.5, containing 140 mM NaCl, 10 mM KCl and 0.05% (w/v) CHAPS.
The test compounds were dissolved in 90% DMSO/10% H2O (v/v). Serial dilutions of the compounds from 3 mM to 0.03 μM in 90% DMSO/10% H2O (v/v) followed by a 1:33.3 dilution in assay buffer was done in 96-well polypropylene plates using a CyBio Dilus 8-channel pipettor (CyBio AG, Jena, Germany) with tip change after each pipetting step. The compound solutions as well as the substrate and the enzyme solutions were transferred to the assay plates (384-well black Cliniplate; cat. no. 95040020 Labsystems Oy, Finland) by means of a CyBi-Well 96-channel pipettor (CyBio AG, Jena, Germany).
Enzyme kinetics were measured by mixing 10 μl of a 3-fold concentrated substrate solution in assay buffer (final substrate concentration was 10 μM) with 10 μl of the corresponding compound solution. The reactions were initiated by addition of 10 μl of a 3-fold concentrated solution of the enzyme in assay buffer. Final enzyme (active site) concentrations in the assay was […] for DPP-IV. Fluorescence product (AMC) formation was monitored for 1 hour at room temperature at 35 second intervals by measuring the fluorescence emission at 500 nm using an exitation wavelength of 350 nm in a TECAN Ultra fluorescence reader (TECAN, Maennedorf, Switzerland). The fluorescence in each well was excited by one flash per measurement. The Origin software package (Origin 7.5 Mircocal, Northampton, Mass., USA) was used to generate all graphs and to perform the IC50 calculations.

T1 sequence (P27487 39-766): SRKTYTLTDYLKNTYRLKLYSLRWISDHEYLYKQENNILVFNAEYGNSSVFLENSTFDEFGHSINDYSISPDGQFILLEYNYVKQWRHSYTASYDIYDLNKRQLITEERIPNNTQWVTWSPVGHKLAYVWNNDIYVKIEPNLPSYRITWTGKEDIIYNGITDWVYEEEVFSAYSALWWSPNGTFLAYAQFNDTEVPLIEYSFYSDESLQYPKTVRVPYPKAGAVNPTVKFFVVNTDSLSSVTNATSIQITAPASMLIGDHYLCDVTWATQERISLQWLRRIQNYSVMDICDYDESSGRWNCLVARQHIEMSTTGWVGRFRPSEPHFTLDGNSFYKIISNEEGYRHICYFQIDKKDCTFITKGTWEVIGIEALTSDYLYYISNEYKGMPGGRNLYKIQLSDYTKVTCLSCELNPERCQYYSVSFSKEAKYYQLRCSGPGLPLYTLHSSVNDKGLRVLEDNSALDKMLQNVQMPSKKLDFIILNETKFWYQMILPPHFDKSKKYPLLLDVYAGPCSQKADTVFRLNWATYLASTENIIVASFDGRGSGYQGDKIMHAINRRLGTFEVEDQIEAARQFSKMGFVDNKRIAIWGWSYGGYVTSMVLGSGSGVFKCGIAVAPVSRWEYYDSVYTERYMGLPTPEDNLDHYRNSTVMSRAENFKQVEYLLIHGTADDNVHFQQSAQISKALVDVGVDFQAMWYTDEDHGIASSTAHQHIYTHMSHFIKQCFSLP

| Structure (SMILES) | IC50 [nM] |
| --- | --- |
| CS(=O)(=O)c1ccc(CN[C@H]2CC[C@](CN)(c3cccc(Cl)c3)CC2)cc1 | 400 |
| Cc1ccnc([C@]2(CN)CC[C@@H](N3CCn4c(nnc4C(F)(F)F)C3)CC2)c1 | 250 |
| CCOC(=O)N1CCC(N2CC(=O)N([C@H]3CC[C@](CN)(c4cccc(Cl)c4)CC3)CC2=O)CC1 | 100 |
| NC[C@]1(c2cccc(Cl)c2)CC[C@H](N2C(=O)OC[C@H]2Cc2ccccc2)CC1 | 200 |
| NC[C@]1(c2cccc(Cl)c2)CC[C@H](n2nc(-c3cnn(Cc4ccccc4)c3)ccc2=O)CC1 | 500 |
| Cn1ccc2cc(C(=O)N[C@H]3CC[C@](CN)(c4cccc(Cl)c4)CC3)ccc21 | 50 |
| Cc1nc(=O)c2c([nH]1)CCC(CN)(c1cccc(Cl)c1)C2 (stereo not drawn) | 11600 |
| CC1CC(=O)N([C@]2(CN)CC[C@@H](N3CCn4c(nnc4C(F)(F)F)C3)CC2)C1 (stereo partly drawn) | 850 |
| Cc1cccc(C2(CN)CCC(N3CCn4c(nnc4C(F)(F)F)C3)C2)c1 (stereo not drawn) | 5050 |
| NCC1(c2cccc(Cl)c2)CCC(Oc2ccc(Br)cn2)CC1 (stereo not drawn) | 200 |
| NC[C@]1(c2cccc(Cl)c2)CC[C@H](N(Cc2ccn[nH]2)C(=O)c2cccnc2)CC1 | 450 |
| Cc1n[nH]c(C)c1CCn1cc(-c2ccc(=O)n([C@H]3CC[C@](CN)(c4cccc(Cl)c4)CC3)n2)nn1 | 850 |
